Assay results reported in patent US4950686A, “Anti-mycoplasma agent” (Shionogi & Co., Ltd., priority 1986, dated 1990).
Converted amounts (≈) assume the structure as drawn. Structures can show the parent of a compound that is named as a salt. Where two headings read alike, the source gives them in different places.

How the values were obtained:
[1] = system: Mycoplasma gallisepticum S6 (standard strain); assay: Anti-mycoplasma activity in vitro (MIC, broth dilution), strain S6; assay type: cell-based; details: Mg S6, 37° C., 7 days
Protocol: (§1) (1) Anti-mycoplasma activity test in vitro
(§2) MIC values of each of Tropolones were measured on the following strains according to the following method.
(§3) (a) Mycoplasma gallisepticum
(§4) Medium: Chick PPLO broth supplemented with 20% equine serum (Eiken Kagaku Co., Ltd.)
(§5) Method: Broth dilution method
(§6) Inoculum: Culture incubated at 37° C. for 24-48 hr which is diluted with broth to 10^6 CCU/ml immediately before the use.
(§7) To 1.6 ml of the broth is added 0.2 ml of an agent which has been subjected to 2-fold dilution and then added 0.2 ml of inoculum, which is incubated at 37° C. for 7 days.

[2] = system: Mycoplasma gallisepticum T-7-T (wild strain, tylosin-resistant); assay: Anti-mycoplasma activity in vitro (MIC, broth dilution), strain T-7-T; assay type: cell-based; details: Mg T-7-T, 37° C., 7 days
Protocol: as §1, §2, §3
(§8) T-7-T (wild strain, tylosin-resistant)
as §4, §5, §6, §7

[3] = system: Mycoplasma gallisepticum MR-1 (wild strain, tylosin-resistant); assay: Anti-mycoplasma activity in vitro (MIC, broth dilution), strain MR-1; assay type: cell-based; details: Mg MR-1, 37° C., 7 days
Protocol: as §1, §2, §3
MR-1 (wild strain, tylosin-resistant)
as §4, §5, §6, §7

[4] = system: Mycoplasma hyopneumoniae ST-11 (standard strain); assay: Anti-mycoplasma activity in vitro (MIC, broth dilution), strain ST-11; assay type: cell-based; details: Mh ST-11
Protocol: as §1, §2
(b) Mycoplasma hyopneumoniae
Strain: ST-11 (standard strain)
Medium: 850 ml of Hanks' solution supplemented with 0.5% lactoalbumin, 50 ml of 25% yeast, 100 ml of equine serum and 4-6 ml of 0.5% phenol red (pH 7.4-7.6)
as §5
Inoculum: Culture which is incubated for 3-4 days and diluted 10 times with the broth if color of the broth becomes yellow then. If it needs over 4 days until color of the broth becomes yellow, it is further subcultured. This is diluted 10 times with the broth to give inoculum.
Assay is done in the same manner as in the above (a).

[5] = system: Mycoplasma gallisepticum T-7-T (wild strain, tylosin-resistant); assay: Mycoplasma gallisepticum air-sac infection method in chicken, strain T-7-T; assay type: in vivo, Mycoplasma gallisepticum; SPF chicken (white leghorn); details: 200 mg/kg × once oral, 20 mg/ml DW;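 on Index of Isolation: index = (P×1 + Q×2 + R×3)/S with range 0 to 6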
Protocol: (2) Test of Effectiveness Mycoplasma gallisepticum air-sac infection method
as §8
Inoculation: To the right air-sac of 9 days old SPF chicken (a white leghorn) which has abstained from water and feed one day before is inoculated 0.20-0.25 ml/chicken of fresh mycoplasma culture incubated for 24-48 hr and diluted with broth (usually 100 times). The concentration in Table 2 is shown in a unit of mg/ml.
Medium: Chick PPLO broth supplemented with 15% equine serum (Eiken Kagaku Co., Ltd.)
Administration: A compound of this invention dissolved or suspended in the following solution is orally and forcibly administered once by a cannula immediately after the infection.
Anatomization and Isolation of Microorganism: The chickens are anatomized 5 days after the infection, and the right and left air sacs are investigated whether they are attacked with a disease or not. The change caused by the disease is represented in four degrees; -: no change, +: slight, ++: medium and +++: serious. Microorganism is isolated from the right and left air-sacs and the trachea by using a sterilized applicator.
Judgement: Judgement is done through an index of an air-sac disease and an index of a microorganism-isolation.
Index of an air-sac-disease: First, indexes in the right and left air-sacs are separately calculated according to the following formula;
{degree of disease (0-3)×chickens}/anatomized chickens
and the index is calculated by the following formula;
(index of right air-sac)×1+(index of left air-sac)×2
Index of a microorganism isolation:
P: chickens from the right air-sac of which microorganism is isolated,
Q: chickens from the trachea of which microorganism is isolated,
R: chickens from the left air-sac of which microorganism is isolated, and
S: chickens investigated.

[6] = Mycoplasmoides gallisepticum, 168 h, read-out: MIC
[7] = Mesomycoplasma hyopneumoniae, read-out: MIC

Compound: O=c1c(O)ccccc1O [Compound 27, 7-Hydroxytropolone]
- MIC [1, 6]: 12.5 µg/mL (≈ 90.5 µM)
- MIC [2, 6]: 12.5 µg/mL (≈ 90.5 µM)
- MIC [3, 6]: 12.5 µg/mL (≈ 90.5 µM)
- MIC [4, 7]: 12.5 µg/mL (≈ 90.5 µM)

Compound: O=C(Oc1cccccc1=O)c1ccccc1 [Compound 14, O-Benzoyltropolone]
- MIC [1, 6]: 6.25 µg/mL (≈ 27.6 µM)
- MIC [2, 6]: 6.25 µg/mL (≈ 27.6 µM)
- MIC [3, 6]: 6.25 µg/mL (≈ 27.6 µM)
- MIC [4, 7]: 0.78 µg/mL (≈ 3.45 µM)

Compound: O=c1cccccc1O [Compound 6, Tropolone magnesium salt]
- MIC [1]: 1.56 µg/mL
- MIC [2]: 1.56 µg/mL
- MIC [3]: 1.56 µg/mL
- MIC [4]: 0.78 µg/mL

Compound: C[C@H]1c2cccc(O)c2C(=O)C2=C(O)[C@]3(O)C(=O)C(C(N)=O)=C(O)[C@@H](N(C)C)[C@@H]3[C@@H](O)[C@@H]21 [doxycycline, reference compound]
- Change of air-sac, left: + (chickens) ([5]; inoculum 1.9 × 10^5): 2
- Change of air-sac, left: ++ (chickens) ([5]; inoculum 1.9 × 10^5): 1
- Change of air-sac, left: +++ (chickens) ([5]; inoculum 1.9 × 10^5): 0
- Change of air-sac, left: - (chickens) ([5]; inoculum 1.9 × 10^5): 2
- Change of air-sac, right: + (chickens) ([5]; inoculum 1.9 × 10^5): 0
- Change of air-sac, right: ++ (chickens) ([5]; inoculum 1.9 × 10^5): 4
- Change of air-sac, right: +++ (chickens) ([5]; inoculum 1.9 × 10^5): 0
- Change of air-sac, right: - (chickens) ([5]; inoculum 1.9 × 10^5): 1
- Isolation, L (left air-sac) ([5]; inoculum 1.9 × 10^5): 5
- Isolation, R (right air-sac) ([5]; inoculum 1.9 × 10^5): 5
- Isolation, T (trachea) ([5]; inoculum 1.9 × 10^5): 5
- Mycoplasma Isolated Chickens ([5]; inoculum 1.9 × 10^5): 5
- Index of Isolation ([5]; inoculum 1.9 × 10^5, range 0-6.0): 6.0
- Index of Disease ([5]; inoculum 1.9 × 10^5, range 0-9.0): 3.2

Compound: O=c1cccccc1O.O=c1cccccc1O.[Cu] [Compound 2, Tropolone copper complex]
- MIC [1]: 3.13 µg/mL
- MIC [2]: 3.13 µg/mL
- MIC [3]: 3.13 µg/mL
- MIC [4]: 0.78 µg/mL

Compound: O=c1cccccc1O [Compound 8, Tropolone sodium salt]
- MIC ([1]; sodium salt): 1.56 µg/mL
- MIC ([2]; sodium salt): 1.56 µg/mL
- MIC ([3]; sodium salt): 1.56 µg/mL
- MIC ([4]; sodium salt): 0.78 µg/mL

Compound: Cc1ccc(S(=O)(=O)Oc2cccccc2=O)cc1 [Compound 16, O-(p-Toluensulfonyl)tropolone]
- MIC [1, 6]: 3.13 µg/mL (≈ 11.3 µM)
- MIC [4, 7]: 6.25 µg/mL (≈ 22.6 µM)

Compound: Tropolone cobalt complex [Compound 3]
- MIC [1]: 1.56 µg/mL
- MIC [2]: 1.56 µg/mL
- MIC [3]: 3.13 µg/mL
- MIC [4]: 0.78 µg/mL
